Marks after values point to notes of the source that are not given here.
Assays:
[1] = system: QH-WSN virus (avian influenza virus H5N1); conditions: for IC50: QH-WSN virus (avian influenza virus); for Inhibitory rates (%) of QH-WSN: QH-WSN virus (avian influenza virus, 200 μM)
[2] = system: WSN virus (human influenza virus H1N1); conditions: for IC50: WSN virus (human influenza virus); for Inhibitory rates (%) of WSN: WSN virus (human influenza virus, 100 μM)
[3] = system: JX virus (human influenza virus H3N2); conditions: for IC50: JX virus (human influenza virus); for Inhibitory rates (%) of JX: JX virus (human influenza virus, 200 μM)
[4] = system: 3 subtypes of virus i.e. H5N1, H6N1 and H9N2; conditions: read-out: 50% effect concentration (EC50); cited from earlier work
[5] = system: influenza virus; format: cell-based

CC[C@H](C)[C@H](NC(=O)[C@H](CCCCN)NC(=O)[C@H](CCC(N)=O)NC(=O)[C@@H](NC(=O)[C@H](CO)NC(=O)[C@H](CCC(=O)O)NC(=O)[C@@H](N)CCCCN)[C@@H](C)O)C(=O)N[C@H](C(=O)N[C@@H](CC(=O)O)C(=O)NCC(=O)N[C@H](C(=O)N[C@H](C(=O)N[C@@H](CC(N)=O)C(=O)N[C@@H](CCCCN)C(=O)N[C@H](C(=O)N[C@@H](CC(N)=O)C(=O)N[C@@H](CO)C(=O)N[C@H](C(=O)N[C@H](C(=O)N[C@@H](CC(=O)O)C(=O)N[C@@H](CCCCN)C(=O)O)[C@@H](C)CC)[C@@H](C)CC)C(C)C)[C@@H](C)O)C(C)C)[C@@H](C)CC [HR1-1]
IC50 [1]: 32.7 ± 6.5 µM | IC50 [2]: 29.3 ± 5.7 µM | IC50 [3]: 38.2 ± 7.8 µM

CC[C@H](C)[C@H](NC(=O)[C@H](C)NC(=O)[C@H](CCCCN)NC(=O)[C@H](CCC(N)=O)NC(=O)[C@@H](NC(=O)[C@H](CO)NC(=O)[C@H](CCC(=O)O)NC(=O)[C@@H](N)CCCCN)[C@@H](C)O)C(=O)N[C@@H](CC(=O)O)C(=O)NCC(=O)N[C@H](C(=O)N[C@H](C(=O)N[C@@H](C)C(=O)N[C@@H](C)C(=O)N[C@@H](C)C(=O)N[C@@H](C)C(=O)N[C@@H](CC(N)=O)C(=O)N[C@@H](CCCCN)C(=O)N[C@H](C(=O)N[C@@H](CC(N)=O)C(=O)N[C@@H](CO)C(=O)N[C@H](C(=O)N[C@H](C(=O)N[C@@H](CC(=O)O)C(=O)N[C@@H](CCCCN)C(=O)O)[C@@H](C)CC)[C@@H](C)CC)C(C)C)[C@@H](C)O)C(C)C [HR1-2]
IC50 [1]: 104 ± 28.6 µM | IC50 [2]: 110 ± 28.2 µM | IC50 [3]: 112 ± 19.5 µM

CC[C@H](C)[C@H](NC(=O)[C@H](CCCNC(=N)N)NC(=O)[C@@H](N)CCCNC(=N)N)C(=O)N[C@@H](CCC(=O)O)C(=O)N[C@@H](CC(N)=O)C(=O)N[C@@H](CC(C)C)C(=O)N[C@@H](CC(N)=O)C(=O)N[C@@H](CCCCN)C(=O)N[C@@H](CCCCN)C(=O)N[C@@H](CCSC)C(=O)N[C@@H](CCC(=O)O)C(=O)N[C@@H](CC(=O)O)C(=O)NCC(=O)N[C@@H](Cc1ccccc1)C(=O)N[C@@H](CC(C)C)C(=O)N[C@@H](CC(=O)O)C(=O)N[C@H](C(=O)N[C@@H](Cc1c[nH]c2ccccc12)C(=O)N[C@H](C(=O)N[C@@H](Cc1ccc(O)cc1)C(=O)O)[C@@H](C)O)C(C)C [HR2A]
Inhibitory rates (%) of QH-WSN [1]: 56.9* % | Inhibitory rates (%) of WSN [2]: 42.0** % | Inhibitory rates (%) of JX [3]: 51.4* %

CSCC[C@H](NC(=O)[C@H](CC(C)C)NC(=O)[C@@H](NC(=O)[C@H](CC(C)C)NC(=O)[C@H](CC(C)C)NC(=O)[C@H](CCC(=O)O)NC(=O)[C@H](C)NC(=O)[C@@H](N)CC(N)=O)C(C)C)C(=O)N[C@@H](CCC(=O)O)C(=O)N[C@@H](CC(N)=O)C(=O)N[C@@H](CCC(=O)O)C(=O)N[C@@H](CCCNC(=N)N)C(=O)N[C@H](C(=O)N[C@@H](CC(C)C)C(=O)N[C@@H](CC(=O)O)C(=O)N[C@@H](Cc1ccccc1)C(=O)N[C@@H](Cc1c[nH]cn1)C(=O)N[C@@H](CC(=O)O)C(=O)N[C@@H](CO)C(=O)N[C@@H](CC(N)=O)C(=O)N[C@H](C(=O)N[C@@H](CCCCN)C(=O)N[C@@H](CC(N)=O)C(=O)O)C(C)C)[C@@H](C)O [HR2B]
Inhibitory rates (%) of QH-WSN [1]: 63.8* % | Inhibitory rates (%) of WSN [2]: 43.0** % | Inhibitory rates (%) of JX [3]: 15.2* %

CC(C)C[C@H](NC(=O)[C@H](CCCNC(=N)N)NC(=O)[C@@H](NC(=O)[C@H](CCCCN)NC(=O)[C@H](CC(=O)O)NC(=O)[C@H](Cc1ccc(O)cc1)NC(=O)[C@H](CC(C)C)NC(=O)[C@H](CC(N)=O)NC(=O)[C@H](CCCCN)NC(=O)[C@@H](NC(=O)[C@H](CC(N)=O)NC(=O)[C@H](CO)NC(=O)[C@H](CC(=O)O)NC(=O)[C@H](Cc1c[nH]cn1)NC(=O)[C@@H](N)Cc1ccccc1)C(C)C)C(C)C)C(=O)N[C@@H](CCC(N)=O)C(=O)O [HR2C]
Inhibitory rates (%) of QH-WSN [1]: 53.1* % | Inhibitory rates (%) of WSN [2]: 29.6** % | Inhibitory rates (%) of JX [3]: 17.1* %

CC(=O)N[C@H]1[C@H]([C@H](O)[C@H](O)CO)OC(C(=O)O)=C[C@@H]1N=C(N)N [Zanamivir]
EC50 [4]: 8.5 to 14 µM

KLPDDFMGCV
inhibition of the infection of influenza virus [5]: did not inhibit the infection of influenza virus

— patent US8470771B2, “Method and medicament for inhibiting the infection of influenza virus” (priority 2007, dated 2013)
